Data taken from patent US20170003275A1, “METHOD TO IDENTIFY COMPOUNDS ABLE TO BIND TO THE ROSSMANN FOLD OF C-TERMINAL-BINDING PROTEINS, IDENTIFIED COMPOUNDS AND MEDICAL USES THEREOF” (CONSIGLIO NAZIONALE DELLE RICERCHE, priority 2013, published 2017).
Where two headings read alike, the source gives them in different places.

Tests used:
recombinant BARS = molecular target: T1, recombinant BARS (Rattus norvegicus, UniProt Q9Z2F5); assay: NAD competition assay ([3H]-NAD+ binding to BARS, dot blot); conditions: for NAD Displac. (%): 10 μM [3H]-NAD+, molecules 0.01 to 100 μM, 2 h 37° C.; for competition for the binding of NAD to BARS (selection): 0.01 to 100 μM
T1 construct: His; made in house
Method: Five μg of recombinant BARS were incubated for 2 h at 37° C. in 100 μl buffer (20 mM HEPES at pH 7.4, 25 mM NaCl and 10 μM [^3H]-NAD^+ (specific activity: 1 μCi/μmol)) in the presence of a range of concentrations (from 0.01 to 100 μM) of the molecules listed in table 1. At the end of the incubation BARS was recovered by trapping it to nitrocellulose using a Dot-Blot apparatus (Bio-Rad Laboratories, UK) according to manufacturer instruction. The samples were washed three times in ice-cold HEPES buffer (20 mM, pH 7.4). The amount of radiolabelled NAD bound to BARS was measured using a BetaImager (BioSpace Lab); the total amount of BARS bound to nitrocellulose was evaluated by red ponceau staining (Sigma-Aldrich) according to manufacturer instructions. Quantitative analyses were performed using GraphPad Prism Software.
A second virtual library was performed using the whole KEGG COMPOUND Database. […] To rank the molecules according to their affinity for BARS, the inventors set up a new assay for determining the capability of the 28 candidate molecules to compete for the binding of NAD to BARS. To this purpose, radiolabeled NAD and recombinant BARS were incubated for 2 h in the presence of a range of concentrations (from 0.01 to 100 μM) of the molecules. At the end of the incubation BARS was recovered by trapping it to nitrocellulose using a dot blot apparatus, and the radiolabelled NAD bound to BARS was evaluated by measuring the radioactivity using a BetaImager (BioSpace Lab).

[1] = tested on: Zonula Occludens (ZO1), CtBP target gene; assay: Expression of CtBP target genes, Western blot of Zonula Occludens; format: cell-based, human; conditions: HeLa; for protein levels of Zonula Occludes: 2 and 4 days, Western blot; for minimal effective concentration: minimum effective concentration, Zonula Occludens protein, read-out: CtBP target genes increase (corepressive activity inhibition) Western Blot
Method: At the end of the incubations part of the samples was analyzed by western blot. To this purpose, the samples were washed with ice-cold PBS and lysed in 100 μl of SDS sample buffer. The samples were then separated on 8% SDS-PAGE gels, transferred onto nitrocellulose, and subjected to Western blotting using an antibody against Zonula Occludens (anti ZO1; Cell Signaling N. Cat. 5406) and an antibody against GAPDH (AbD Serotec) as a reference. The anti ZO1 antibody was used at a 1:1000 dilution; the anti GAPDH antibody was used at an 1:100000 dilution. The nitrocellulose membranes were subjected to ECL (as described above). The freeware ImageJ software (http://imagej.nih.gov) was used for quantitative analysis.

HeLa cells = assay: Cell viability assay (Hoechst cell number); conditions: for effect on cell viability: even at 100 microM; for 50% Viability: 0.01 to 100 μM
Method: Quantitative analyses were performed using a GraphPad Prism Software.
At the end of the incubation the cells have been fixed, stained with Hoechst to label the DNA and analysed using a fluorescence microscope for the automated images acquisition and analysis (Olympus ScaR). […] An EC50 was calculated for the remaining molecules.

[2] = Homo sapiens, 48 h, read-out: 50% Viability

| SMILES | EC50 (HeLa cells; [2]) [µM] | EC50 (HeLa cells; read-out: 50% Viability, 48 h, 0.01 to 100 μM) [µM] | NAD Displac. (%) (recombinant BARS) | protein levels of Zonula Occludes [1] | minimal effective concentration ([1]; Homo sapiens) [µM] | effect on cell viability (HeLa cells; 48 h) | competition for the binding of NAD to BARS (selection) (recombinant BARS) | minimal effective concentration [1] [µM] | 50% Viability (HeLa cells; 48 h) |
| --- | --- | --- | --- | --- | --- | --- | --- | --- | --- |
| C[C@H]1[C@H](NC(=O)C(=NOC(C)(C)C(=O)O)c2csc(N)n2)C(=O)N1S(=O)(=O)O (stereo in doubt) [C28, 2-[(Z)-[1-(2-amino-1,3-thiazol-4-yl)-2-[[(2S,3S)-2-methyl-4-oxo-1-sulfoazetidin-3-yl]amino]-2-oxoethylidene]amino]oxy-2-methylpropanoic acid] |  |  | 15 | able to increase | 1 | did not affect (or had minor effects) |  |  |  |
| CC(=O)CC(c1ccccc1)c1c(O)c2ccccc2oc1=O (stereo not drawn) [C1, 4-Hydroxy-3-(3-oxo-1-phenylbutyl)-2H-1-benzopyran-2-one] | > 100 |  | 15 | able to increase | 100 | did not affect (or had minor effects) | best competitors |  |  |
| NS(=O)(=O)Oc1ccc2c3c(c(=O)oc2c1)CCCCC3 [C3, Sulfamic acid 6-oxo-6,7,8,9,10,11-hexahydrocyclohepta[c]-1-benzopyran-3-yl ester] | 10 |  |  |  |  |  |  |  |  |
| CC(=O)CC(c1ccc(Cl)cc1)c1c(O)c2ccccc2oc1=O (stereo not drawn) [C4, 3-[1-(4-chlorophenyl)-3-oxobutyl]-4-hydroxychromen-2-one] | > 100 |  | 20 | able to increase | 10 | did not affect (or had minor effects) | best competitors |  |  |
| COc1cc(CNC(=O)CCCC/C=C/C(C)C)ccc1O [C6, N-(4-Hydroxy-3-methoxybenzyl)-8-methyl-6(E)-nonenamide 8-Methyl-N-vanillyl-trans-6-nonenamide] | > 100 |  | 20 |  |  | did not affect (or had minor effects) | best competitors |  |  |
| CN1CCc2c(sc(/N=C/c3cccs3)c2C(N)=O)C1 [C9, 6-methyl-2-[(E)-(thiophen-2-ylmethylidene)amino]-4H,5H,6H,7H-thieno[2,3-c]pyridine-3-carboxamide] |  | > 100 |  | able to increase |  | did not affect (or had minor effects) |  | 10 |  |
| CCCCOc1ccc(C2=N/C(=C\c3cc(OC)c(OC)cc3OC)C(=O)O2)cc1 [C10, (4Z)-2-(4-butoxyphenyl)-4-[(2,4,5-trimethoxyphenyl)methylidene]-4,5-dihydro-1,3-oxazol-5-one] |  |  | 30 |  |  | did not affect (or had minor effects) | best competitors |  | Little |
| Cc1c(Cc2c(Cl)cccc2Cl)c(=O)oc2cc(OCC(=O)OCC(=O)c3ccc(Cl)cc3)ccc12 [C12, 2-(4-chlorophenyl)-2-oxoethyl 2-{[3-(2,6-dichlorobenzyl)-4-methyl-2-oxo-2H-chromen-7-yl]oxy}acetate] |  |  | 23 |  |  | did not affect (or had minor effects) | best competitors |  | Little |
| O=C1OC(c2c(O)c3ccccc3oc2=O)c2ccccc21 (stereo not drawn) [C14, 4-hydroxy-3-(3-oxo-1,3-dihydroisobenzofuran-1-yl)-2H-chromen-2-one] | 10 |  |  |  |  |  |  |  |  |
| COc1ccc(-c2coc3cc(O[C@@H]4O[C@H](CO)[C@@H](O)[C@H](O)[C@H]4O)ccc3c2=O)cc1 [C15, 3-(4-methoxyphenyl)-7-{[(2S,3R,4S,5S,6R)-3,4,5-trihydroxy-6-(hydroxymethyl)oxan-2-yl]oxy}-4H-chromen-4-one] |  |  |  | able to increase | 5 | did not affect (or had minor effects) |  |  | Little |
| O=C(O)Cc1nn(Cc2nc3cc(C(F)(F)F)ccc3s2)c(=O)c2ccccc12 [C18, 2-[4-Oxo-3-[5-(trifluoromethyl)benzothiazol-2-ylmethyl]-3,4-dihydrophthalazin-1-yl]acetic acid] |  |  |  |  |  | did not affect (or had minor effects) |  |  | Little |
| NC(=O)[C@@H]1CCCN1C(=O)[C@H](Cc1cnc[nH]1)NC(=O)[C@@H]1CCC(=O)N1 [C21, (2S)-N-[(2S)-1-[(2S)-2-carbamoylpyrrolidin-1-yl]-3-(1H-imidazol-5-yl)-1-oxopropan-2-yl]-5-oxopyrrolidine-2-carboxamide] | > 100 |  |  |  |  | did not affect (or had minor effects) |  |  |  |

Continued, in another order:

| EC50 (HeLa cells; [2]) [µM] | EC50 (HeLa cells; read-out: 50% Viability, 48 h, 0.01 to 100 μM) [µM] | SMILES | NAD Displac. (%) (recombinant BARS) | protein levels of Zonula Occludes [1] | minimal effective concentration ([1]; Homo sapiens) [µM] | effect on cell viability (HeLa cells; 48 h) | competition for the binding of NAD to BARS (selection) (recombinant BARS) | minimal effective concentration [1] [µM] | 50% Viability (HeLa cells; 48 h) |
| --- | --- | --- | --- | --- | --- | --- | --- | --- | --- |
| > 100 |  | CC(=O)CC(c1ccc([N+](=O)[O-])cc1)c1c(O)c2ccccc2oc1=O (stereo not drawn) [C5, 4-Hydroxy-3-[1-(4-nitrophenyl)-3-oxobutyl]-2H-1-benzopyran-2-one] |  |  |  | did not affect (or had minor effects) |  |  |  |
| > 100 |  | O=C1C2C3c4ccccc4C(c4ccccc43)C2C(=O)N1C(CO)(CO)CO [C8, (9R,10S,11S,15R)-13-(1,3-dihydroxy-2-(hydroxymethyl)propan-2-yl)-10,11-dihydro-9H-9,10-[3,4]epipyrroloanthracene-12,14(13H,15H) dione] |  | able to increase | 10 | did not affect (or had minor effects) |  |  |  |
| > 100 |  | O=C(CCc1ccc(O)cc1)c1c(O)cc(O)cc1O[C@@H]1O[C@H](CO)[C@@H](O)[C@H](O)[C@H]1O [C16, 1-(2,4-dihydroxy-6-{[(2S,3R,4S,5S,6R)-3,4,5-trihydroxy-6-(hydroxymethyl)oxan-2-yl]oxy}phenyl)-3-(4-hydroxyphenyl)propan-1-one] |  |  |  | did not affect (or had minor effects) |  |  |  |
| > 100 |  | COc1cc(C2Oc3c(O)cc(C4Oc5cc(O)cc(O)c5C(=O)C4O)cc3C2CO)ccc1O (stereo not drawn) [C17, 3beta,5,7-Trihydroxy-2alpha-[7-hydroxy-2beta-(4-hydroxy-3-methoxyphenyl)-3alpha-(hydroxymethyl)-2,3-dihydrobenzofuran-5-yl]-2,3-dihydro-4H-benzo[b]pyran-4-one] |  |  |  | did not affect (or had minor effects) |  |  |  |
| 1 |  | C#C[C@]1(O)CC[C@H]2[C@@H]3CCc4cc(OC5CCCC5)ccc4[C@H]3CC[C@@]21C [C19, 17alpha-Ethynylestradiol 3-cyclopentyl ether] |  |  |  |  |  |  |  |
| > 100 |  | O=P(O)(O)C(O)(Cc1cccnc1)P(=O)(O)O [C26, [1-hydroxy-1-phosphono-2-(pyridin-3-yl)ethyl]phosphonic acid] | 30 | able to increase | 1 | did not affect (or had minor effects) | best competitors |  |  |
| > 100 |  | NCc1ccccc1CC(=O)N[C@@H]1C(=O)N2C(C(=O)O)=C(CSc3nnnn3CC(=O)O)CS[C@H]12 [C29, (6R,7R)-7-[2-[2-(Aminomethyl)phenyl]acetamido]-3-[1-(carboxymethyl)-1H-tetrazol-5-ylsulfanylmethyl]-8-oxo-5-thia-1-azabicyclo[4.2.0]-2-octene-2-carboxylic acid] | 35 |  |  | did not affect (or had minor effects) | best competitors |  |  |
